Activity calls are given as the source filed them.
How the values were obtained:
[1] = inhibitors of intracellular T. cruzi replication, confirmation, NIH3T3 host cells, beta-gal luminescence (AID 2044); format: functional, cell-based;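 also: intracellular parasites grown in NIH/3T3 mouse fibroblasts as host cells; luminescent beta-galactosidase reporter signal from transgenic T. cruzi replicating inside host cells; inhibitors lower the luminescence signal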
[2] = cytotoxicity toward NIH3T3 fibroblasts, dose response, counter-screen, cell-based, ATP luminescence, mouse fibroblasts (AID 2010); format: functional;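 also: cells exposed to compound for about 90 hours before reading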
Protein Wnt-3a = Protein Wnt-3a (Mus musculus, UniProt P27467); experiment: Wnt3a-driven reporter signaling inhibition, dose response, selectivity assay for Gli-SUFU antagonist project, Wnt-LIGHT cells, luminescence (AID 651570); format: functional; conditions: read-out: IC50_Mean;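 also: Wnt-LIGHT reporter cells stimulated with conditioned medium from Wnt3a-producing cells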
Aminopeptidase N = target: T1, Aminopeptidase N (Plasmodium falciparum FcB1/Columbia, UniProt O96935); experiment: P. falciparum M1AAP inhibitors, biochemical, fluorogenic H-Leu-NHMec substrate, 1536-well (AID 1445); set-up: species or system Plasmodium falciparum 3D7, 3D7
T1 sequence (O96935 whole entry): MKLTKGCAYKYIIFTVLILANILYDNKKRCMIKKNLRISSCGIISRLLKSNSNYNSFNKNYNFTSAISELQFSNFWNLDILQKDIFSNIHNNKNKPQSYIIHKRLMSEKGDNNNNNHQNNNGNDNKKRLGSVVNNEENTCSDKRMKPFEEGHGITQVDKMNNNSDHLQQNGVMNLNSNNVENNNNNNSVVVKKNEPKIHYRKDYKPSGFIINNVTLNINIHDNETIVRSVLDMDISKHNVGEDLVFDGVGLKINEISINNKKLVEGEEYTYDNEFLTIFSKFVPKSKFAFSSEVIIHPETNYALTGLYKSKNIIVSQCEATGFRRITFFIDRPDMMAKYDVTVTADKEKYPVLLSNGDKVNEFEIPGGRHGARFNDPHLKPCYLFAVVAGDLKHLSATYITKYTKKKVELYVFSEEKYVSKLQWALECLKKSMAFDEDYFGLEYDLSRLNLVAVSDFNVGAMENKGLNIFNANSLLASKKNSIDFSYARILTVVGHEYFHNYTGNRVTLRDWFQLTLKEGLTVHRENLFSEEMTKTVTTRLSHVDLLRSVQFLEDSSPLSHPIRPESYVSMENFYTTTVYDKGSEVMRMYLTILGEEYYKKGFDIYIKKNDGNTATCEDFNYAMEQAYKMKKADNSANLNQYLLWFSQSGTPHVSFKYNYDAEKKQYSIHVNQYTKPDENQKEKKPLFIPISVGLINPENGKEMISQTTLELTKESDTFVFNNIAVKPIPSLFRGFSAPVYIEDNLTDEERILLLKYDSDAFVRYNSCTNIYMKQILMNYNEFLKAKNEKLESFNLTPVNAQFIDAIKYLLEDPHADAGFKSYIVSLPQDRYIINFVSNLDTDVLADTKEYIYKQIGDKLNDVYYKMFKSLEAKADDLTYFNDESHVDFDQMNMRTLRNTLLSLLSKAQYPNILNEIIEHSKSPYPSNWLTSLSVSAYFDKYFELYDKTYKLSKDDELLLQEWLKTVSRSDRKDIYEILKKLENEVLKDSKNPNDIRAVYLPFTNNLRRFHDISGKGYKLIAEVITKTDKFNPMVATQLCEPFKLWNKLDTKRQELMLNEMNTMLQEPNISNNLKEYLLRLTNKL

[3] = target: T2, High affinity choline transporter 1 (Homo sapiens, UniProt Q9GZV3); experiment: CHT inhibitors, dose response, cell-based, 5-point CRC, membrane potential dye (AID 504840); format: functional
T2 sequence (Q9GZV3 whole entry): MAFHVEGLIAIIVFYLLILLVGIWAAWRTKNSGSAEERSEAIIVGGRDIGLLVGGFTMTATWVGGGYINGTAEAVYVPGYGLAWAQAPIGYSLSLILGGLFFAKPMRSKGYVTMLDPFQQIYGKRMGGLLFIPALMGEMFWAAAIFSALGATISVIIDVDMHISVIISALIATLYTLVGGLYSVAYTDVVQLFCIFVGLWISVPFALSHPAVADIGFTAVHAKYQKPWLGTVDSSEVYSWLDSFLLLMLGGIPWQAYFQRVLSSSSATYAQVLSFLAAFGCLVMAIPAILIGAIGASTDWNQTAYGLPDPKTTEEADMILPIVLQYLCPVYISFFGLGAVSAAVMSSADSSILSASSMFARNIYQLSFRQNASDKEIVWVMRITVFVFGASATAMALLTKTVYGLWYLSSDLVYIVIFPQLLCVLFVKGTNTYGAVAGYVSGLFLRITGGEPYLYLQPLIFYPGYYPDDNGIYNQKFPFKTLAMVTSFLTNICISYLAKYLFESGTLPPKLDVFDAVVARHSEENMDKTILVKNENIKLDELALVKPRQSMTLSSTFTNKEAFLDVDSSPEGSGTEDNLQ

[4] = target: T2, High affinity choline transporter 1; experiment: CHT inhibitors, dose response, cell-based, 10-point CRC, membrane potential dye (AID 588401); format: functional;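 also: membrane potential dye fluorescence of choline-evoked depolarization via CHT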
[5] = target: Low molecular weight phosphotyrosine protein phosphatase (Homo sapiens, UniProt P24666); format: functional; conditions: read-out: IC50_Mean;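 also: Dose-response confirmation assay measuring inhibition of LMPTP enzyme activity by fluorescence intensity read-out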
[6] = target: T3, Tyrosine-protein phosphatase non-receptor type 22 (Homo sapiens, UniProt Q9Y2R2); experiment: LYP phosphatase inhibition for selectivity, dose response, selectivity assay for LMPTP inhibitor project, biochemical, fluorescence, LYP catalytic domain (AID 652006); format: functional; conditions: read-out: IC50_Mean
T3 sequence (Q9Y2R2 whole entry): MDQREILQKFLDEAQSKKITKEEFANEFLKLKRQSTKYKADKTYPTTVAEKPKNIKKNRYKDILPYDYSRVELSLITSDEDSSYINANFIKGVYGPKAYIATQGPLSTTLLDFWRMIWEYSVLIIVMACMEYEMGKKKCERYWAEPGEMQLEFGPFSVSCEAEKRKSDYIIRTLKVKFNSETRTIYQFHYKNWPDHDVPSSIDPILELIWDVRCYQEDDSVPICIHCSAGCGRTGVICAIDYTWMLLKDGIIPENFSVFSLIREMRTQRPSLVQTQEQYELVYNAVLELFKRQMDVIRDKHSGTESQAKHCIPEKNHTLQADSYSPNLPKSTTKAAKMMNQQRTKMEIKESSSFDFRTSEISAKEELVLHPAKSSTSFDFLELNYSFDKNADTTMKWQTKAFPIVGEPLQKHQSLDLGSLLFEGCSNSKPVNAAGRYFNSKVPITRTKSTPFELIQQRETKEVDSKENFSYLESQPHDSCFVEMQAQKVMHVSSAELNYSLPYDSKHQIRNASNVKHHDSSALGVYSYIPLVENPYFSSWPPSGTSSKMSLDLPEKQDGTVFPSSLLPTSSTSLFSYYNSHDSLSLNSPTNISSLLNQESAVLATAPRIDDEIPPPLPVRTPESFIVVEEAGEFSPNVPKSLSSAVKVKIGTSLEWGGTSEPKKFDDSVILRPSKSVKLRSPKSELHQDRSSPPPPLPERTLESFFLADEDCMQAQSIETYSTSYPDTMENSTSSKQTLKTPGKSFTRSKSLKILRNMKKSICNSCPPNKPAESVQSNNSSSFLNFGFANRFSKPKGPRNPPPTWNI

[7] = HEK293T cell cytotoxicity, dose response, cytotoxicity control for HIV Vif inhibitor project, cherry-picks (AID 652208); format: functional, cell-based
[8] = target: Potassium voltage-gated channel subfamily KQT member 2 (Rattus norvegicus, UniProt O88943); experiment: KCNQ2 potassium channel inhibitors, dose response, cell-based, automated electrophysiology, set II, rat KCNQ2 (AID 588637); format: functional
Sequence of Potassium voltage-gated channel subfamily KQT member 2 (O88943 whole entry): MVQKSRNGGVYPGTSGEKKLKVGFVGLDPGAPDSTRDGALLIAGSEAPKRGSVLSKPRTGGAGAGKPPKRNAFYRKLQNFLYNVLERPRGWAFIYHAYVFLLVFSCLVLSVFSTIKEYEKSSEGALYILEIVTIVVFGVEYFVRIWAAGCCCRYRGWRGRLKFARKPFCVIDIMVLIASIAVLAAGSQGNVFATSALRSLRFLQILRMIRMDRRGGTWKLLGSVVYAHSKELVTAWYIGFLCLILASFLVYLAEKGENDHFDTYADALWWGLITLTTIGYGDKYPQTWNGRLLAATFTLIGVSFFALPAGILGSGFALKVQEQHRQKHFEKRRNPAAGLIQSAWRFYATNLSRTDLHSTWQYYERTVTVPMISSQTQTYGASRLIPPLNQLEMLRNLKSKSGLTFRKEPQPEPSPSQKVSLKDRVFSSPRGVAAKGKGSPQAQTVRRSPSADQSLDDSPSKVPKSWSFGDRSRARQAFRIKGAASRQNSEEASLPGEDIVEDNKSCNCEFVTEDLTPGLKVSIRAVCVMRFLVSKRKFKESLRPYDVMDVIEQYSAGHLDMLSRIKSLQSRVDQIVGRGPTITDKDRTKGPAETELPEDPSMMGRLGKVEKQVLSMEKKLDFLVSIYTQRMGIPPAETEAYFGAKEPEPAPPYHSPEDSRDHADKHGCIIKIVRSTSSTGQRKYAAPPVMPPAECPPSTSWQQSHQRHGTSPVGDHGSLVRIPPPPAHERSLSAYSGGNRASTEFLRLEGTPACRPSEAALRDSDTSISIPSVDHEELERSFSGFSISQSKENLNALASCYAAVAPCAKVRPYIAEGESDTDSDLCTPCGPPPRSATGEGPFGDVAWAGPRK

Sequence of Low molecular weight phosphotyrosine protein phosphatase (P24666 whole entry, the tested form may be a part): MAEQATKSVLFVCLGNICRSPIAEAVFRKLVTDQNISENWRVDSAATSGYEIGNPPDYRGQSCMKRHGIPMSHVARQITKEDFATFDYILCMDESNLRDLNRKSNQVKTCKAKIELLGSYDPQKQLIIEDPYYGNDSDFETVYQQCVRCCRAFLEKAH
Sequence of Protein Wnt-3a (P27467 whole entry): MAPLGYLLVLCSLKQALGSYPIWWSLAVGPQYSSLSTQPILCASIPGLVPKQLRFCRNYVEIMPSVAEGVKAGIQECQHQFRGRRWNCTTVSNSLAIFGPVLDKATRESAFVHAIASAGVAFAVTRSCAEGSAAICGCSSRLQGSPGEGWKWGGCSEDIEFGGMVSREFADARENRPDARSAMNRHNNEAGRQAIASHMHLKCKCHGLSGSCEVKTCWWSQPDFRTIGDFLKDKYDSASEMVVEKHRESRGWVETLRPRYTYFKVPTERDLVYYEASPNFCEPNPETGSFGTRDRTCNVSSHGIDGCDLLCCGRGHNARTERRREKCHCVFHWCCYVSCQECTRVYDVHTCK

## c1ccc(-c2c[n+](-c3ccccc3)c3n2CCS3)cc1
[1]
  EC50: 2.27 µM (active)
[2]
  EC50: > 60 µM (inconclusive)
Protein Wnt-3a
  IC50: 3.05 µM (active)

## Cc1cccc(C)c1-n1cccc1/C=C1/C(=N)N2C(=NC1=O)SN=C2S(C)(=O)=O
Aminopeptidase N
  IC50: 34.4 µM (active)
[3]
  IC50: 8.3 µM (active)
[4]
  IC50: 4.47 µM (active)

## Cc1cc(N2CCN(S(=O)(=O)c3ccc(Cl)c(Cl)c3)CC2)c2ccccc2n1
[5]
  IC50: 19.5 µM (active)
[6]
  IC50: 35.8 µM (inactive)
[7]
  AC50: 50.5 µM (active)

## COc1ccccc1N1CCN(C(=O)C(Cc2ccccc2)NC(=O)C2CCCCC2)CC1 (stereo not given)
[8]
  IC50: 5.72 µM (active)
